#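 The compound was tested at five concentrations on cells cultured in 96-well plates, with a 48-hour exposure period. The concentration for 50% growth inhibition is given as GI50. Definition used: TGI = concentration required for complete inhibition of growth.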 Where a SMILES comes first, the peptide text is derived from it. The star is where a group is joined. Cbz = O=C(OCc1ccccc1)*; NHNH2 = NN*
# What was measured:
# Assay in all cases: NCI-60 cell line screen, 48 h
# KM12 colon = system: KM12 colon
# UO-31 renal = system: UO-31 renal
# U251 CNS = system: U251 CNS
# SF-268 CNS = system: SF-268 CNS
# SN12C renal = system: SN12C renal
# MCF7 breast = system: MCF7 breast
# SR leukemia = system: SR leukemia
# LOX IMVI melanoma = system: LOX IMVI melanoma
# HOP-62 NSCLC = system: HOP-62 NSCLC
# HOP-92 NSCLC = system: HOP-92 NSCLC
Compound,TGI (KM12 colon) [µM],TGI (UO-31 renal) [µM],TGI (U251 CNS) [µM],TGI (SF-268 CNS) [µM],TGI (SN12C renal) [µM],TGI (MCF7 breast) [µM],TGI (SR leukemia) [µM],TGI (LOX IMVI melanoma) [µM],TGI (HOP-62 NSCLC) [µM],TGI (HOP-92 NSCLC) [µM],GI50 (HOP-62 NSCLC) [µM]
CCCN(CCC)c1c([N+](=O)[O-])cc(C(=O)N(CCO)CCO)cc1[N+](=O)[O-],> 100,> 100,> 100,> 100,> 100,,,,,,
NC(=Nc1cccc(Cl)c1)c1ccccc1N,> 100,> 100,> 100,> 100,,> 100,> 100,> 100,> 100,,
CCOC(=O)CCC(NC(=O)OCc1ccccc1)C(=O)NC(CCC(=O)OCC)C(=O)NN (stereo not drawn) (Cbz-Glu(OEt)-Glu(OEt)-NHNH2; configuration not given here),> 100,> 100,> 100,,> 100,> 100,> 100,,> 100,> 100,
CNC(=O)OC(COC)CN1CCN(c2ccccc2C)CC1 (stereo not drawn),> 10,> 10,> 10,> 10,> 10,> 10,> 10,> 10,> 10,> 10,
COc1ccc(C(=O)N/N=C/c2c(C)n(C)n(-c3ccccc3)c2=O)cc1,> 100,> 100,> 100,> 100,> 100,,> 100,> 100,> 100,> 100,
CCCN1C(=O)/C(=C\c2ccc(OC)c(OC)c2)SC1=Nc1ccccc1,> 100,> 100,> 100,> 100,> 100,> 100,> 100,> 100,98.5,> 100,
O=C1CCCCC/C1=C\c1ccccc1,> 100,> 100,> 100,> 100,> 100,,> 100,> 100,> 100,> 100,
COc1cc2ccc1OCc1cccc(n1)COc1ccc(cc1OC)C=NCCNCCNCCN=C2,> 100,> 100,> 100,> 100,> 100,> 100,> 100,> 100,> 100,> 100,
COC(=O)[C@@H]1CC(C(CN)c2cn(C(=O)OC(C)(C)C)c3ccccc23)C(=O)N1C(=O)OC(C)(C)C (stereo partly drawn),> 100,> 100,> 100,> 100,32.9,58.5,43.3,30.5,> 100,,
N#CCN(CC#N)C1CC=CCC1N(CC#N)CC#N (stereo not drawn),> 100,> 100,> 100,> 100,> 100,> 100,,> 100,> 100,> 100,
S=C(N1CCN(c2cccc(Cl)c2)CC1)N1CCN(c2cccc(Cl)c2)CC1,61.7,86.1,> 100,> 100,,> 100,32.4,,> 100,,
N#C/C(N)=C(\C#N)N=CNc1ccc(N)cc1,> 100,> 100,> 100,> 100,> 100,> 100,> 100,> 100,> 100,,
CC1(C)CC(=O)c2c(nc3c(ccc4ccccc43)c2-c2ccc(NC(=O)CCCCC(=O)Nc3ccc(-c4c5c(nc6c4ccc4ccccc46)CC(C)(C)CC5=O)cc3)cc2)C1,42.2,74.1,> 100,> 100,92.8,> 100,,33.3,> 100,,
CCOC(=O)C(C)c1nc2ccc(C(F)(F)F)cc2[nH]c1=O (stereo not drawn),> 100,> 100,> 100,> 100,> 100,> 100,,> 100,> 100,> 100,
CCOC(=O)c1cc(C2CCN(c3ccccc3)C2=O)c(C(=O)/C=C(/C)N)[nH]1 (stereo not drawn),> 100,> 100,36.4,> 100,63.7,> 100,> 100,> 100,46,,
N#Cc1c(-c2ccc(Cl)cc2)c2c(N=Nc3c(O)ccc4ccccc34)[nH]nc2[nH]c1=O,,1.05,1.56,1.66,2.05,0.982,,0.439,1.82,0.865,
O=C(O)c1ccc(Nc2nc3cc(C(F)(F)F)ccc3n3cccc23)cc1,> 100,> 100,52.6,> 100,,> 100,41.6,30.5,> 100,> 100,
O=S(=O)(O)c1ccc2c(N=Nc3ccc(Cl)cc3)c(O)ccc2c1,> 100,> 100,> 100,> 100,> 100,,,> 100,> 100,> 100,
CC1C2=C(CCCC2=O)N(c2ccc(Cl)cc2)C2=C1C(=O)CCC2,> 100,> 100,> 100,> 100,> 100,> 100,> 100,> 100,,> 100,
CN(C)c1cccc2c1C(=O)C=CC21CCc2ccc(N(C)C)c3c(N(C)C)ccc1c23 (stereo not drawn),30.2,24.1,,33.8,26.5,27.3,56.5,31.9,32.8,41.8,
CCCC1(CCC)c2cc(/C=N\O)ccc2-c2ccc(-c3ccc(C(C)(C)C)cc3)cc21,> 100,> 100,,> 100,53.5,> 100,73.1,> 100,> 100,> 100,
Cc1ccc2[nH]c3[nH]c(=S)[nH]c(=O)c3c2c1,> 100,> 100,,> 100,> 100,> 100,> 100,> 100,> 100,> 100,
CC1(C)OC[C@@H](O)[C@H](Br)CO1,> 100,> 100,> 100,> 100,> 100,> 100,> 100,> 100,> 100,,
NC(=O)c1c(NC=O)ncn1C1OCC(O)C(O)C1O (stereo not drawn),> 100,> 100,> 100,> 100,> 100,,> 100,> 100,> 100,> 100,

Compound,TGI (KM12 colon) [µM],TGI (UO-31 renal) [µM],TGI (U251 CNS) [µM],TGI (SF-268 CNS) [µM],TGI (SN12C renal) [µM],TGI (MCF7 breast) [µM],TGI (SR leukemia) [µM],TGI (LOX IMVI melanoma) [µM],TGI (HOP-62 NSCLC) [µM],TGI (HOP-92 NSCLC) [µM],GI50 (HOP-62 NSCLC) [µM]
O=C(OC/C=C1C=C(OC(=O)c2ccccc2)/C(=N/N(C(=O)c2ccccc2)c2ccccc2)O\1)c1ccccc1,22.8,0.517,19.3,6.85,22.7,,,14.1,37,,18.8
COC(=O)/C=C(\S/C=C(/c1ccccc1)N1CCn2c(C(=O)c3ccccc3)c(C(=O)OC)c(C(=O)OC)c21)C(=O)OC,> 10,,> 10,,> 10,4.33,> 10,4.28,5.02,4.73,
COc1ccc(C2C3CCCC(C3=O)C(c3ccc(OC)cc3)N2N=O)cc1 (stereo not drawn),> 74.1,> 100,> 100,> 100,39.2,38.2,,32.5,> 86.5,> 100,
COc1c2c(cc3c1C1(O)Cc4ccc5c(c4C[N+]1(C)CC3)OCO5)OCO2 (stereo not drawn),> 100,,> 100,> 100,> 100,> 100,> 100,> 100,> 100,> 100,
Cc1ccc2oc3c(c(Br)c(Br)n3C)c(=O)c2c1,> 100,27.5,35.8,> 100,47,> 100,,> 100,33.3,38.1,
O=C(NNS(=O)(=O)c1ccccc1)c1cccnc1,> 100,> 100,> 100,> 100,> 100,> 100,,> 100,> 100,> 100,
CCn1c2ccccc2c2ccc(C3C(C(=O)OC)=C(C)NC(C)=C3C(=O)OC)cc21,> 100,> 100,> 100,> 100,> 100,> 100,> 100,> 100,> 100,,
O=C(Nc1cccc2ccccc12)c1ccccc1,> 100,> 100,> 100,> 100,> 100,> 100,,> 100,> 100,,
CC(CN(C)C)C(=O)c1ccccc1 (stereo not drawn),> 51.5,> 31.6,> 100,85,33.8,,60.2,31.7,> 100,6.87,
O=C(Nc1sccc1S(=O)(=O)c1ccccc1)c1ccccc1,> 100,> 100,> 100,> 100,> 100,> 100,,> 100,> 100,> 100,
CN1C(=O)CC2CCC(=O)N2c2cccnc21 (stereo not drawn),> 100,> 100,> 100,> 100,> 100,> 100,> 100,> 100,> 100,,
COc1ccc(-n2c(=O)n(-c3ccccc3)c(=O)n2-c2ccc(OC)cc2)cc1,> 100,> 100,> 100,,> 100,> 100,,> 100,> 100,> 100,
NC1Cc2ccccc2OC1=O (stereo not drawn),> 100,> 100,> 100,> 100,> 100,> 100,> 100,,> 100,,
CC/C=C/C[C@H](O)[C@H]1C[C@H]2O[C@H](CC(=O)OC)C[C@H]2O1,> 100,> 100,> 100,> 100,> 100,> 100,> 100,> 100,> 100,,
CCC(O)c1ccc(N=Cc2ccccc2O)cc1 (stereo not drawn),> 100,> 100,> 100,> 100,,> 100,> 100,> 100,> 100,> 100,
OC12c3ccccc3C3CCC4(OCCO4)C3C1c1ccccc12 (stereo not drawn),> 100,> 100,> 100,> 100,> 100,,,> 100,> 100,,
COc1ccccc1NCc1cccc2c(=O)c3ccc(Cl)cc3oc12,> 100,> 100,> 100,,> 100,> 100,> 100,> 100,> 100,> 100,
O=C(Nc1nnc(-c2c(Cl)c(Cl)c(Cl)c(Cl)c2-c2nc3cc(C(=O)c4ccccc4)ccc3[nH]2)o1)c1ccc(Cl)cc1,> 100,> 100,> 100,,53,> 100,> 100,> 100,67.5,> 100,
C=CCCCCOC1C=CC(O)C(CO)O1 (stereo not drawn),> 100,> 100,> 100,> 100,> 100,> 100,,> 100,> 100,> 100,
C(=Nc1ccc(-c2nc3ccccc3[nH]2)cc1)c1ccco1,> 100,> 100,,> 100,> 100,> 100,> 100,> 100,> 100,> 100,
COc1ccc2nc3n(c2c1)C(=O)c1ccccc1-3,> 100,> 100,> 100,> 100,> 100,> 100,> 100,,> 100,> 100,
COc1nc2c(c(=O)n1C)N=C(c1ccc(Cl)cc1)CC(c1ccccc1)N2 (stereo not drawn),33.8,> 100,> 100,,54.4,28.8,> 100,52.2,> 100,> 100,
COC1CCC(=O)N1CN(C(C)=O)c1ccc(C)cc1 (stereo not drawn),> 100,> 100,> 100,> 100,> 100,> 100,> 100,> 100,> 100,,

# — PubChem BioAssay (NCI)
